Reference: US7906488B2, “Sphingolipids in treatment and prevention of steatosis and of steatosis or of hepatotoxicity and its sequelae” (Nederlandse Organisatie Voor …, priority 2004, dated 2011)

What was measured:
[1] = system: APOE*3Leiden mice; experiment: Hepatic VLDL-TG production, apoB production and VLDL composition (Triton WR1339 method); type: in vivo; settings: 1% PS diet
Protocol: (§1) Plasma parameters: Tail blood samples were collected in EDTA-coated cups, or in paraoxon-coated capillaries to prevent lipolysis as described in Zambon et al. 1993 (Zambon et al. 1993. J. Lipid Res. 34:1021-1028). Plasma lipid parameters were determined using commercial kits for total cholesterol (C) Chol R1 from Roche Diagnostics, Mannheim, Germany), non-esterified free fatty acids (FFA) (NEFA-C; Wako chemicals, Neuss, Germany), Total triglycerides (TG) (Triglyceride GPO-Trinder; Sigma, St. Louis, Mo.), β-hydroxybutyrate (β-HB; Sigma) and ALAT (Reflotron GPT; Roche). Serum amyloid A (SAA) was measured by ELISA (Biosource, Nivelles, Belgium) and fibrinogen by sandwich ELISA, as described in Koopman et al., 2005 (Koopman et al. 2005. Fibrinol Proteol 11:19). For lipoproteins fractionation, groupwise-pooled plasma was size-fractionated by fast protein liquid chromatography (FPLC) on a Superose 6 column (Äkta; Amersham Pharmacia Biotech, Uppsala, Sweden). Fractions were assayed for total C and TG as described. Hepatic VLDL-TG production: The rate of hepatic VLDL-TG production, de novo apoB secretion, and VLDL composition were determined in overnight-fasted mice. Mice were anaesthetized with vetranquil/fentanyl/midazolam i.p., and injected i.v. with 0.1 ml PBS containing 100 μCi Tran^35S-label™ (ICN Biomedicals, Irvine, Calif.) to measure the de novo apoB synthesis. After 30 min, the animals received a Triton WR1339 injection (Tyloxapol, Sigma; 500 mg/kg body weight in 100 μl saline) to prevent systemic lipolysis of newly-secreted hepatic VLDL-TG (Aalto-Setala et al. 1992. J. Clin. Invest 90:1889-1900.27) Blood samples were drawn at 0, 15, 30, 60, and 90 min after Triton WR1339 injection and plasma TG concentrations were determined. After 90 min, the animals were sacrificed and blood was collected by retro-orbital bleeding for isolation of VLDL. VLDL composition: VLDL particles (d<1.019) were separated from other lipoproteins in plasma by density gradient ultra-centrifugation, as described in Jong et al., 1996 (Jong et al. 1996. Arterioscler. Thromb. Vasc. Biol. 16:934-940). Protein content of the VLDL fraction was determined by Lowry's assay (Lowry et al., 1951. J. Biol. Chem. 193:265-275), and TG and total C were determined as described above. Phospholipids and free cholesterol were determined using standard commercial kits (Wako Chemicals, Neuss, Germany). The ^35S-apoB content of VLDL was measured after selective precipitation of apoB with isopropanol as described elsewhere (Li et al. 1996 J. Lipid Res. 37:210-220; Pietzsch et al. 1995. Biochim. Biophys. Acta 1254:77-88). In vivo clearance of VLDL-like TG-rich particles: To determine whether 1% PS accelerates the clearance of TG-rich lipoproteins from plasma, we used radiolabeled emulsion particles as a tool. VLDL-like emulsion particles containing 200 μCi of [^3H]triolein and 20 μCi of [^14C]cholesteryl oleate were prepared and characterized as described in Rensen et al. 1997 (Rensen et al., 1997. J. Lipid Res. 38:1070-1084). Fed mice were anaesthetized as described above and laparotomy was performed. […] After taking the last liver and blood sample, the remainder of the liver, heart, spleen, hind limb muscle, and gonadal, perirenal and intestinal white adipose tissues were harvested. Lipids were extracted overnight at 60° C. in 500 μL of Solvable™, and radioactivity was counted as described in Rensen et al., 1997 (supra). RNA isolation and RT-PCR: Livers from 4 h-fasted mice fed 1% PS-containing diet or control Western-type diet for 5 weeks were removed immediately after sacrifice, flushed with cold 0.9% NaCl and snap frozen in liquid nitrogen. Total RNA was isolated as described by Chomczynski and Sacchi (Chomczynski, P. and Sacchi, N. 1987. Anal. Biochem. 162:156-159) by use of RNA-Bee™ (Campro Scientific, Berlin, Germany). cDNA synthesis was performed according to Bloks et al (Bloks et al., 2001. J. Lipid Res. 42:41-50). […]

[2] = system: APOE*3Leiden mice; experiment: In vivo clearance of VLDL-like TG-rich emulsion particles; settings: 1% PS diet
Protocol: as §1, with “(supra).” for “(supra). RNA isolation and RT-PCR: Livers from 4 h-fasted mice fed 1% PS-containing diet or control Western-type diet for 5 weeks were removed immediately after sacrifice, flushed with cold 0.9% NaCl and snap frozen in liquid nitrogen. Total RNA was isolated as described by Chomczynski and Sacchi (Chomczynski, P. and Sacchi, N. 1987. Anal. Biochem. 162:156-159) by use of RNA-Bee™ (Campro Scientific, Berlin, Germany). cDNA synthesis was performed according to Bloks et al (Bloks et al., 2001. J. Lipid Res. 42:41-50).”

CCCCCCCCCCCCCC[C@@H](O)[C@@H](O)[C@@H](N)CO [PS, phytosphingosine]
VLDL particle composition: phospholipid ([1]; 5 weeks): 7.57 ± 1.13 μmol/mg VLDL protein
VLDL particle composition: total cholesterol ([1]; 5 weeks): 11.94 ± 2.16 μmol/mg VLDL protein
VLDL particle composition: triglycerides ([1]; 5 weeks): 36.93 ± 7.17 μmol/mg VLDL protein
VLDL total cholesterol, % Δ vs control ([1]; 5 weeks): −51%
apoB production rate, % Δ vs control ([1]; 5 weeks): did not differ and n.s.
VLDL-TG production rate ([1]; 5 weeks, overnight-fasted): 3.63 ± 0.52 μmol TG/h
apoB production rate ([1]; 5 weeks, overnight-fasted): 13.47 ± 2.45 ×10^4 dpm/ml/h
Decrease of total C in VLDL particles vs control ([1]; p<0.05): 51%
Uptake of [^14C]cholesteryl oleate or [^3H]TG-derived radioactivity by peripheral muscle and adipose tissues [2]: No effects
Plasma clearance of [^14C]cholesteryl oleate, t1/2 ([2]; 5 weeks, fed mice): 39.5 ± 5.3 min
Serum clearance of [^3H]TG, t1/2 ([2]; 5 weeks, fed mice): 4.7 ± 0.3 min
[^3H]TG uptake in the liver ([2]; at 10 min and 20 min after injection): increased significantly
Liver uptake of [^14C]cholesteryl oleate, change vs control ([2]; at 20 min): +60%
